# Assay results reported in patent publication US20260234107A1, “TRYPTAMINES AND METHODS OF TREATING MOOD DISORDERS” (priority 2022, published 2026).
# Like-named read-outs stand apart in the source and are kept apart here.
# Columns and labels:
# [1] = Stability in rat brain homogenate; format: in vitro ADME, male Sprague Dawley rats; details: rat brain homogenate, 1 μM, 37° C.; for half-life at 1 µM: male, Sprague Dawley
# Experimental: Disclosed compounds were tested for stability in rat brain homogenate (Table 8). There was widely variable stability among the test compounds under the conditions of the experiment.
# (§1) Rat Brain Homogenate Stability. Frozen rat brain homogenate (pooled from male Sprague Dawley rats, BioreclamationIVT, RAT00BRAINMZA) was thawed in a water bath at 37° C. immediately prior to use. Positive controls and test compounds (final concentration in incubation medium=1 μM for test compounds and 2 μM for controls, all with 2% DMSO) were incubated in duplicate for each time point (0, 10, 30, 60, and 120 min) in the rat brain homogenate at a total reaction volume of 100 μL at 37° C. At the end of each incubation period, reactions were immediately quenched with 400 μL of acetonitrile containing internal standard (200 ng/mL tolbutamine and 200 ng/mL labetalol) and mixed thoroughly. Plates were then sealed, shaken for 20 min, and centrifuged at 4,000 rpm and 4° C. for 20 min. Aliquots of 50 μL of each supernatant were diluted into 100 μL of water and the mixtures were then shaken again for 10 min.
# [2] = Metabolic stability in human liver microsomes (HLM); set-up: microsomal CLint / half-life: dose or concentration left out as unconfirmed; details: both, human, pooled human liver microsomes, pH 7.4
# 5-HT2B = biological target: T1, 5-HT2B (Homo sapiens, UniProt P41595); assay: FLIPR Ca2+ flux agonist assay at 5-HT2B; format: cell-based; details: for 5-HT2B % Act @ Max Dose: Ca2+ flux, HEK293, max dose
# T1 construct: host or cells: HEK293
# T1 sequence (P41595 whole entry, species assumed): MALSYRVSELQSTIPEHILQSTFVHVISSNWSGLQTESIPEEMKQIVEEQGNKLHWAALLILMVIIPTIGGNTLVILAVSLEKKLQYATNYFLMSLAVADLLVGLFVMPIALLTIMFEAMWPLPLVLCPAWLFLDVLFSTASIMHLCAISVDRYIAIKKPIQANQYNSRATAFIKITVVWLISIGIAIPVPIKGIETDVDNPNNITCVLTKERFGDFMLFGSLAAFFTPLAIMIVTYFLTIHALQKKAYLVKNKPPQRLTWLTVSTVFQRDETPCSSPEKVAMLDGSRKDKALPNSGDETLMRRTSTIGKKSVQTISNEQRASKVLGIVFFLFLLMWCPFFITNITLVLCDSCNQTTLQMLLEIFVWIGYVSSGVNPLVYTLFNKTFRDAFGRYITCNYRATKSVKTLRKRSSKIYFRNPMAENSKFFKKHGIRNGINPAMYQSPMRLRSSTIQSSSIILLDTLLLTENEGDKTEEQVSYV
# Experimental: (§2) A solution of 250 mM probenecid in 1 mL FLIPR assay buffer was prepared fresh. This was combined with a fluorescent dye (Fluo-4 Direct™) to make a final assay concentration of 2.5 mM. […] The fluorescent dye was then added to the assay plate along with assay buffer to a final volume of 40 μL. The cell plate was incubated for 50 min at 37° C. and 5% CO2 and placed into the FLIPR Tetra along with the compound plate. 10 μL of references and compounds were then transferred from the compound plate into the cell plate and the fluorescent signal was read.
# [3] = system: monoamine oxidase A and B (MAO-A and MAO-B); assay: Stability in the presence of monoamine oxidases (human liver mitochondria preparation); set-up: half-life / microsomal CLint: dose or concentration left out as unconfirmed; details: for stability in the presence of MAO (in words): human liver mitochondria preparation; for Remaining (t = 60 min) / half-life / microsomal CLint: human liver mitochondria; for half-life / microsomal CLint: human, pH 7.4
# Experimental: Liver Mitochondria Incubations. Human liver mitochondria (Xenotech H0610.M) were used.
# 5-HT2A = 5-HT2A (Homo sapiens, UniProt P28223); assay: FLIPR Ca2+ flux agonist assay at 5-HT2A; format: cell-based; set-up: host or cells: HEK293; details: for 5-HT2A % Act @ Max Dose: HEK293, max dose
# Chain of 5-HT2A (P28223 whole entry): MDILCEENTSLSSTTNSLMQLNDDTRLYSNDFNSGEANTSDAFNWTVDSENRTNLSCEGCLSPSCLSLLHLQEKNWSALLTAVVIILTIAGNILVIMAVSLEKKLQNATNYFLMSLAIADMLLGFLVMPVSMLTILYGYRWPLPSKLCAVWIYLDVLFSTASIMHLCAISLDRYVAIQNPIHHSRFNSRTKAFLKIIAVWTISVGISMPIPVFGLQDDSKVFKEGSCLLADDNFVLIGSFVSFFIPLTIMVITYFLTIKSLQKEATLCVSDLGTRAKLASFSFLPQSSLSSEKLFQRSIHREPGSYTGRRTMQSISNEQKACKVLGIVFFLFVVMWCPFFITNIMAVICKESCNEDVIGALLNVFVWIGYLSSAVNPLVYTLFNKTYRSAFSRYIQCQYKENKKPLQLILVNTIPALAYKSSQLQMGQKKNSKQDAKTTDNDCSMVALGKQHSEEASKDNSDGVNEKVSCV
# Experimental: as §2
# 5-HT1A = biological target: T2, 5-HT1A (Homo sapiens, UniProt P08908); assay: FLIPR Ca2+ flux agonist assay at 5-HT1A; format: cell-based; details: for 5-HT1A % Act @ Max Dose: Ca2+ flux, CHO cells
# T2 construct: host or cells: CHO cells
# T2 sequence (P08908 1-422): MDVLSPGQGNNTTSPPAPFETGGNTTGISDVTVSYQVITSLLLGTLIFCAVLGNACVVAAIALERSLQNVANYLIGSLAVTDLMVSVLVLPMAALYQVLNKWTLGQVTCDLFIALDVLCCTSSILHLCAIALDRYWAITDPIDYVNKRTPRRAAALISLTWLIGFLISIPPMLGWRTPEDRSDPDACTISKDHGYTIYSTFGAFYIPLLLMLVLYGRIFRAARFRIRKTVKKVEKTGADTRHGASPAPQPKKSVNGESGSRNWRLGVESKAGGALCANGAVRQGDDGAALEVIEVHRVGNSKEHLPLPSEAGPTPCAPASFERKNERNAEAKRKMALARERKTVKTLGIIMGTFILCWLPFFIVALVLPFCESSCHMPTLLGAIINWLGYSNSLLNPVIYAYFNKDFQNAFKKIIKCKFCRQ
# Experimental: as §2
# [4] = Stability in mouse brain homogenate; format: in vitro ADME, male CD-1 mice; details: mouse brain homogenate, 1 μM, 37° C.; for half-life at 1 µM: male, CD-1
# Experimental: Disclosed compounds were tested for stability in mouse brain homogenate (Table 7). There was widely variable stability among the test compounds under the conditions of the experiment.
# as §1, with “Mouse Brain” for “Rat Brain”, “Frozen mouse” for “Frozen rat”, “male CD-1 mice,” for “male Sprague Dawley rats,”, “BioreclamationIVT, MSE00BRAINMZA)” for “BioreclamationIVT, RAT00BRAINMZA)”, “the mouse” for “the rat”
# [5] = Ca2+ flux, HEK293, read-out: 5-HT2A EC50
# [6] = human liver mitochondria 0.30 mg protein/mL, 37° C.
Structure (SMILES),half-life at 1 µM [1],% Compound Remaining (after 120 min) [1],half-life [2],microsomal CLint [2],EC50 (5-HT2B),5-HT2B % Act @ Max Dose (5-HT2B),stability in the presence of MAO (in words) [3],Remaining (t = 60 min) [3],half-life [3],microsomal CLint [3],EC50 (5-HT2A; [5]),EC50 (5-HT1A),5-HT1A % Act @ Max Dose (5-HT1A),half-life at 1 µM [4],% Compound Remaining (after 120 min) [4],other results
"Oc1c(F)ccc2[nH]cc(CCNC3CC3)c12 [Compound 27, 3-(2-(cyclopropylamino)ethyl)-5-fluoro-1H-indol-4-ol]",15.1 min,0.4%,19.8 min,70 µL/min/mg,9.53 nM,36.08%,intermediate stability,32.1%,36.2 min,63.9 µL/min/mg,7.37 nM,1230 nM,84.02%,69.6 min,29.4%,–
"CNCCc1c[nH]c2ccc(F)c(O)c12 [Compound 26, 5-fluoro-3-(2-(methylamino)ethyl)-1H-indol-4-ol]",2.2 min,0%,0.9 min,1520 µL/min/mg,–,13.87%,–,0.1%,6.3 min,369 µL/min/mg,–,3490 nM,74.21%,1.7 min,0%,EC50 (5-HT2A): 21 nM; 5-HT2A % Act @ Max Dose (5-HT2A; Ca2+ flux): 86.9%
"Oc1cccc2[nH]cc(CCNCCF)c12 [Compound 7, 3-(2-((2-fluoroethyl)amino)ethyl)-1H-indol-4-ol]",> 289 min,77.1%,77 min,18 µL/min/mg,375 nM,20.76%,–,85.2%,> 145 min,< 15.9 µL/min/mg,–,> 100000 nM,42.13%,177 min,61.8%,EC50 (5-HT2A): 47.2 nM; 5-HT2A % Act @ Max Dose (5-HT2A; Ca2+ flux): 86.8%
"CNCCc1c[nH]c2cc(F)cc(O)c12 [Compound 33, 6-fluoro-3-(2-(methylamino)ethyl)-1H-indol-4-ol]",9.1 min,0.4%,10.1 min,138 µL/min/mg,28.5 nM,31.76%,–,14.3%,20.2 min,114 µL/min/mg,5.8 nM,> 100000 nM,3.51%,16 min,0.6%,–
"NCCc1c[nH]c2cc(F)cc(O)c12 [Compound 31, 3-(2-aminoethyl)-6-fluoro-1H-indol-4-ol]",11.4 min,0%,16.9 min,81.8 µL/min/mg,5.07 nM,99.12%,intermediate stability,24.6%,30.1 min,76.8 µL/min/mg,6.36 nM,12500 nM,18.3%,20.3 min,1.6%,–
"C=CCNCCc1c[nH]c2cccc(O)c12 [Compound 23, 3-(2-(allylamino)ethyl)-1H-indol-4-ol]",126 min,52.4%,118 min,11.8 µL/min/mg,–,–,–,83.5%,> 145 min,–,–,–,–,127 min,49.6%,–
"COc1ccc2[nH]cc(CCN(C)C)c2c1 [Compound 5-MeO-DMT, reference compound]",–,0.3%,–,–,–,20.5%,rapidly metabolized by MAO,47.1%,–,–,–,–,78.8%,–,91.2%,"t1/2 [1]: 14.4 min; CLint(MAO) [3, 6]: 43.6 µL/min/mg; t1/2 [3, 6]: 52.9 min; t1/2 [4]: >289.1 min"
